Results published in PubChem BioAssay AID2060614 (Molecular Pharmacology Branch, DTP, NCI, 2025).

Tested on: 598228-144-R-J1-PDC complex spheroids, viability
Assay: Anticancer human tumor 598228-144-R-J1-PDC patient-derived serous endometrial adenocarcinoma cell line growth inhibition [CLK]
Details: for IC50: curve of first compound; for viability, T/C: stronger effect = lower value
Description: A high-throughput screen of multi-cell type tumor spheroids was designed to identify active combinations of […] and targeted small molecules. Complex spheroids include a stromal component modeled by human endothelial cells (HUVEC) and fibroblasts modeled by human mesenchymal stem cells (MSCs). The concentration ranges selected for each drug and investigational agent were based upon clinically achievable concentrations if the clinical Cmax of the agent was known.
Compounds. The drugs and investigational agents: cirtuvivint (SM08502; NSC835563), CC-671 (NSC850746), vemurafenib (NSC761431), tapotoclax (NSC804041), sotorasib (NSC818433), adagrasib (NSC831453), MRTX-1133 (NSC836407), BAY2416964 (NSC825713), copanlisib (NSC816437), inavolisib (NSC800729), abemaciclib (NSC768073), osimertinib (NSC779217), entinostat (NSC756642), eltanexor (KPT-8602, NSC794443), venetoclax (NSC766270), ceralasertib (NSC777638), bortezomib (NSC756655), olaparib (NSC753686), talazoparib (NSC767125), alisertib (NSC759677), peposertib (NSC802822), gemcitabine (NSC613327), 5-fluorouracil (NSC19893), SN-38 (NSC673596), oxaliplatin (NSC266046), paclitaxel (NSC125973), and doxorubicin (NSC123127), were obtained from the National Cancer Institute (NCI) Developmental Therapeutics Program Chemical Repository. The FDA-approved anticancer drug set is available from the Developmental Therapeutics Program at https://dtp.cancer.gov/organization/dscb/obtaining/available plates.htm. […] The stock solutions were prepared in dimethyl sulfoxide (DMSO, Sigma-Aldrich, St. Louis, MO, cat. D2650), except for the platinum complexes which were prepared in saline (Quality Biological, Gaithersburg, MD, cat. 114-055-101), at 800-fold the tested concentration and stored at -70 degrees C prior to their use. All drugs and investigational agents were tested over a range starting from a high concentration at or near the clinical Cmax and decreasing in half-log increments. If the clinical Cmax for an agent had not been determined, the highest concentration tested was 10 microM.
Cell Culture. All cells were maintained in an incubator at 37 degrees C and 5% CO2 with 95% humidity. The PDC lines were cultured according to standard operating procedures established by the NCI PDMR. Briefly, all PDCs were thawed and cultured in Matrigel-coated flasks prepared with a working solution of 1X Ham's F-12 nutrient mix, without supplementation (Invitrogen, Waltham, MA, cat. 11765054), 100 U/mL penicillin-streptomycin (Invitrogen, cat. 15140122), and 2.5% Matrigel (Corning Inc., Corning, NY, cat. 354248) for the first three passages. The 947758-054-R-J2-PDC line was cultured in 6B/Colon 1A media, which includes advanced DMEM/F-12 (Thermo Fisher Scientific, cat. 12634028), 10 mM HEPES (Thermo Fisher Scientific, cat. 15630080), 1X GlutaMAX supplement (Thermo Fisher Scientific, cat. 35050061), 0.1 mg/mL primocin (InvivoGen, cat. ant-pm-2), 10% defined fetal bovine serum, heat inactivated (HyClone Laboratories Inc., cat. SH30070.03HI), 1.25 mM N-Acetyl-L-cysteine (Sigma-Aldrich, cat. A9165), 10 mM nicotinamide (Sigma-Aldrich, cat. N0636), 1X B-27 supplement (Thermo Fisher Scientific, cat. 17504044), 1X N-2 supplement (Thermo Fisher Scientific, cat. 17502048), and 10 microM Y-27632 dihydrochloride (Tocris Bioscience, cat. 1254). The 876862-298-R-J1-PDC was cultured in 6E media, which includes all 6B/Colon 1A media components plus 50% L-WRN conditioned media (ATCC, cat. CRL-3276), 50 ng/mL recombinant human EGF recombinant protein (hEGF; Thermo Fisher Scientific, cat. PHG0311), 10 ng/mL recombinant human fibroblast growth factor 10 (hGFG-10; PeproTech, cat. 100-26), 1 ng/mL recombinant human fibroblast growth factor 2 (hFGF-2; PeproTech, cat. 100-18B), and 1 µM prostaglandin E2 (PGE2; Tocris, cat. 2296). The 227483-062-R1-J1-PDC line was cultured in Panc media, containing all 6E components except hFGF-2, with the addition of 500 nM SB-431542 (Selleckchem, cat. S1067) and 10 nM gastrin (Tocris, cat. 3006). […]
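Also: spheroids exposed to compounds for seven days before readout.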
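For viability, T/C in this document: 100% = DMSO vehicle control wells.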

In the case of C#Cc1c(F)ccc2cc(O)cc(-c3ncc4c(N5CC6CCC(C5)N6)nc(OCC56CCCN5CC(F)C6)nc4c3F)c12 (configuration not stated) + CN1CCN(c2cc(C(=O)Nc3cc4cc(-c5cnn(C)c5)ccc4cn3)ccn2)CC1, the IC50 (second compound 0.0316 µM) is reported as > 10000 nM, the IC50 (second compound 0.1 µM) is reported as > 10000 nM and the IC50 (second compound 0.316 µM) is reported as < 31.6 nM. For the same molecule, the IC50 (second compound 1 µM) was < 31.6 nM, the IC50 (second compound 3.16 µM) was < 31.6 nM and the IC50 (second compound 10 µM) was < 31.6 nM. For the same molecule, the viability, T/C (second compound 0.0316 µM, first compound 0.0316 µM) was 132%, the viability, T/C (second compound 0.0316 µM, first compound 0.1 µM) was 124% and the viability, T/C (second compound 0.0316 µM, first compound 0.316 µM) was 125%. The viability, T/C (second compound 0.0316 µM, first compound 1 µM) was 135%, the viability, T/C (second compound 0.0316 µM, first compound 3.16 µM) was 117% and the viability, T/C (second compound 0.0316 µM, first compound 10 µM) was 124%. It also gave a viability, T/C (second compound 0.1 µM, first compound 0.0316 µM) of 133%, a viability, T/C (second compound 0.1 µM, first compound 0.1 µM) of 157% and a viability, T/C (second compound 0.1 µM, first compound 0.316 µM) of 136%. For the same molecule, the viability, T/C (second compound 0.1 µM, first compound 1 µM) was 124%, the viability, T/C (second compound 0.1 µM, first compound 3.16 µM) was 125% and the viability, T/C (second compound 0.1 µM, first compound 10 µM) was 121%. For the same molecule, the viability, T/C (second compound 0.316 µM, first compound 0.0316 µM) was 17.1%, the viability, T/C (second compound 0.316 µM, first compound 0.1 µM) was 13.9% and the viability, T/C (second compound 0.316 µM, first compound 0.316 µM) was 16%. For the same molecule, the viability, T/C (second compound 0.316 µM, first compound 1 µM) was 19.5%, the viability, T/C (second compound 0.316 µM, first compound 3.16 µM) was 17.8% and the viability, T/C (second compound 0.316 µM, first compound 10 µM) was 16.2%. The viability, T/C (second compound 1 µM, first compound 0.0316 µM) was 1.68%, the viability, T/C (second compound 1 µM, first compound 0.1 µM) was 1.68% and the viability, T/C (second compound 1 µM, first compound 0.316 µM) was 2.02%. The viability, T/C (second compound 1 µM, first compound 1 µM) was 1.73%, the viability, T/C (second compound 1 µM, first compound 3.16 µM) was 1.51% and the viability, T/C (second compound 1 µM, first compound 10 µM) was 1.49%. It also gave a viability, T/C (second compound 3.16 µM, first compound 0.0316 µM) of 1.98%, a viability, T/C (second compound 3.16 µM, first compound 0.1 µM) of 5.99% and a viability, T/C (second compound 3.16 µM, first compound 0.316 µM) of 2.15%. The viability, T/C (second compound 3.16 µM, first compound 1 µM) was 1.76%, the viability, T/C (second compound 3.16 µM, first compound 3.16 µM) was 1.24% and the viability, T/C (second compound 3.16 µM, first compound 10 µM) was 3.29%. It also gave a viability, T/C (second compound 10 µM, first compound 0.0316 µM) of 1.05%, a viability, T/C (second compound 10 µM, first compound 0.1 µM) of 2.3% and a viability, T/C (second compound 10 µM, first compound 0.316 µM) of 0.88%. For the same molecule, the viability, T/C (second compound 10 µM, first compound 1 µM) was 0.94%, the viability, T/C (second compound 10 µM, first compound 3.16 µM) was 1% and the viability, T/C (second compound 10 µM, first compound 10 µM) was 0.39%.
